In US20250333397A1 (REMIX THERAPEUTICS INC., priority 2021, published 2025):
Where two headings read alike, the source gives them in different places.

How the values were obtained:
Assay type in all cases: cell-based, human
HTT mRNA = experiment: RT-qPCR splicing assay, HTT canonical (CJ) and alternative (AJ) junction mRNA; conditions: Homo sapiens; for AC50: read-out: HTT AJ (AC50, increase in AJ mRNA)
Procedure, shortened: (§1)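 24 h compound exposure of A673 or K562 cells at 37 °C, 10 uM top final concentration, 3-fold steps, DMSO ≤0.25%. Splice-isoform levels determined by qPCR on cDNA from lysates, run at least in duplicate; values expressed as RQ normalized to GAPDH, GUSB or PPIA and DMSO.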

MYB mRNA = experiment: RT-qPCR splicing assay, MYB canonical (CJ) and alternative (AJ) junction mRNA; conditions: Homo sapiens; for AC50: read-out: MYB AJ (AC50, increase in AJ mRNA)
Procedure, shortened: as §1

SMN2 mRNA = experiment: RT-qPCR splicing assay panel, SMN2 canonical junction (CJ) mRNA; conditions: Homo sapiens, canonical junction (CJ) mRNA, RT-qPCR panel, Table 4A; read-out: SMN2, decrease in CJ mRNA levels, IC50
Procedure, shortened: as §1

Target C mRNA = experiment: RT-qPCR splicing assay panel, Target C canonical junction (CJ) mRNA; conditions: Homo sapiens, canonical junction (CJ) mRNA, RT-qPCR panel, Table 4A; read-out: Target C, decrease in CJ mRNA levels, IC50
Procedure, shortened: as §1

[1] = 24 h, Table 3A, A673 or K562 cells, 24 h treatment
[2] = 24 h, Table 3A, A673 or K562 cells, 24 h treatment, read-out: HTT CJ (IC50, decrease in CJ mRNA)
[3] = canonical junction (CJ) mRNA, RT-qPCR panel, Table 4A, read-out: HTT, decrease in CJ mRNA levels, IC50
[4] = 24 h, Table 3A, A673 or K562 cells, 24 h treatment, read-out: MYB CJ (IC50, decrease in CJ mRNA)
[5] = canonical junction (CJ) mRNA, RT-qPCR panel, Table 4A, read-out: MYB, decrease in CJ mRNA levels, IC50

| Compound | AC50 (HTT mRNA; [1]) [nM] | IC50 (HTT mRNA; [2]) [nM] | IC50 (HTT mRNA; [3]) [nM] | AC50 (MYB mRNA; [1]) [nM] | IC50 (MYB mRNA; [4]) [nM] | IC50 (MYB mRNA; [5]) [nM] | IC50 (SMN2 mRNA) [nM] | IC50 (Target C mRNA) [nM] |
| --- | --- | --- | --- | --- | --- | --- | --- | --- |
| O=c1cc(-c2cc(O)c(-c3ccc(N4CC[C@H](NC5CCC5)C4)nn3)cc2F)cc[nH]1 [Compound 221] | 100 to 1000 | 100 to 1000 | 100 to 1000 | 1000 to 10000 | 100 to 1000 | 100 to 1000 | < 100 | 1000 to 10000 |
| Cc1ccc(-c2cc(O)c(-c3ccc(N4CC[C@@H](NC5CCC5)C4)nn3)cc2F)cn1 [Compound 222] | 100 to 1000 | 100 to 1000 | 100 to 1000 | 1000 to 10000 | 100 to 1000 | 100 to 1000 | 100 to 1000 | 1000 to 10000 |
| Cc1ccc(-c2cc(O)c(-c3ccc(N4CC[C@H](NC5CCC5)C4)nn3)cc2F)cn1 [Compound 223, 2-{6-[(3S)-3-(cyclobutylamino)pyrrolidin-1-yl]pyridazin-3-yl}-4-fluoro-5-(6-methylpyridin-3-yl)phenol] | 100 to 1000 | 100 to 1000 | 100 to 1000 | 100 to 1000 | 100 to 1000 | 100 to 1000 | 100 to 1000 | 1000 to 10000 |
| COc1cncc(-c2cc(O)c(-c3ccc(N4CC[C@H](NC5CCC5)C4)nn3)cc2F)c1 [Compound 224, 2-{6-[(3S)-3-(cyclobutylamino)pyrrolidin-1-yl]pyridazin-3-yl}-4-fluoro-5-(5-methoxypyridin-3-yl)phenol] | > 10000 | 1000 to 10000 | 1000 to 10000 | > 10000 | > 10000 | > 10000 | 1000 to 10000 | > 10000 |
| COc1cncc(-c2cc(O)c(-c3ccc(N4CC[C@@H](NC5CCC5)C4)nn3)cc2F)c1 [Compound 225, 2-{6-[(3R)-3-(cyclobutylamino)pyrrolidin-1-yl]pyridazin-3-yl}-4-fluoro-5-(5-methoxypyridin-3-yl)phenol] | > 10000 | > 10000 | > 10000 | > 10000 | > 10000 | > 10000 | > 10000 | > 10000 |
| Cc1cn(-c2cc(O)c(-c3ccc(N4CC[C@@H](NC5CCC5)C4)nn3)cc2F)cn1 [Compound 226, 2-{6-[(3R)-3-(cyclobutylamino)pyrrolidin-1-yl]pyridazin-3-yl}-4-fluoro-5-(4-methylimidazol-1-yl)phenol] | 100 to 1000 | < 100 | < 100 | 100 to 1000 | 100 to 1000 | 100 to 1000 | < 100 | 100 to 1000 |
| Cc1cn(-c2cc(O)c(-c3ccc(N4CC[C@H](NC5CCC5)C4)nn3)cc2F)cn1 [Compound 227, 2-{6-[(3S)-3-(cyclobutylamino)pyrrolidin-1-yl]pyridazin-3-yl}-4-fluoro-5-(4-methylimidazol-1-yl)phenol] | < 100 | < 100 | < 100 | 100 to 1000 | 100 to 1000 | 100 to 1000 | < 100 | 100 to 1000 |
| Cc1ncc(-c2cc(O)c(-c3ccc(N4CC[C@@H](NC5CCC5)C4)nn3)cc2F)o1 [Compound 228, 2-{6-[(3R)-3-(cyclobutylamino)pyrrolidin-1-yl]pyridazin-3-yl}-4-fluoro-5-(2-methyl-1,3-oxazol-5-yl)phenol] | 100 to 1000 | 100 to 1000 | 100 to 1000 | 100 to 1000 | 100 to 1000 | 100 to 1000 | < 100 | 100 to 1000 |
